Article PMC4598023 (PLoS ONE, 2015)
Like-named read-outs stand apart in the source and are kept apart here. Bridges are numbered along the chain shown (N, C = ends). Where no end group is shown, it is not given here.

B1: murine amylin (peptide, UniProt P12968 38-74, looked up)
peptide: KCNTATCATQRLANFLVRSSNNLGPVLPPTNVGSNTY-NH2
modifications: disulfide 2-7; also: FITC (<1 mol/mol, position not given here) on labelled copy only
notes: murine amylin (islet amyloid polypeptide), the 37-residue hormone; numbers count on: the mature protein; The unlabelled ligand and the FITC-labelled copy are written as one molecule; also called free murine amylin; non-conjugated amylin; source: synthetic peptide, bought: Genemed Synthesis Inc
B2: monoPEGylated human amylin (peptide, UniProt P10997 34-70, looked up)
peptide: KCNTATCATQRLANFLVHSSNNFGAILSSTNVGSNTY-NH2
modifications: disulfide 2-7; also: one methoxy-PEG 5 kDa (mPEG succinimidyl carbonate) at an amino group of Lys1, N-terminal region
notes: human amylin (islet amyloid polypeptide, IAPP), the 37-residue hormone, amino acids 1 to 37; numbers count on: the mature protein; The PEG site was placed by trypsin digestion and MALDI-ToF-MS: fragment 12-37 is unmodified; also called PEGylated amylin; hAmylin-PEG

Tests used:
[1] = cited from earlier work
Source text: One additional limitation for the use of the currently available amylinomimetic compound is the lack of ability for mimicking the basal levels of amylin in the fasting state. […] (Fig 6A) and thus a sustained release of amylin of an increasing in its t1/2 would serve as potential strategies for the restoration of basal hormone levels. […] Additionall ...

[2] = Pharmacokinetics after subcutaneous administration in mice (serum amylin by ELISA); type: in vivo; details: Swiss male mice, s.c., 400 μg peptide/kg; for level at time molar at 5 s / level at time molar at 0.5 min / level at time molar at 1 min / level at time molar at 2 min / level at time molar at 4 min / level at time molar at 0.8 h: male, Swiss, 400 ug peptide/kg, ELISA, read-out: amylin concentration (serum); for level at time molar at 5 s: Time 0.0833 (head: min); for level at time molar at 0.5 min: Time 0.5 (head: min); for level at time molar at 1 min: Time 1 (head: min); for level at time molar at 2 min: Time 2 (head: min); for level at time molar at 4 min: Time 4 (head: min); for level at time molar at 0.8 h: Time 48 (head: min)
Procedure: Swiss male mice (8 weeks old; n = 4 per group) were administrated of free or monoPEGylated human amylin (both at 400 μg peptide / kg body weight) by subcutaneous route. At the indicated time interval, blood was collected with glass capillary tubes from retro-orbital access and the serum was separated. The concentration of amylin in the plasma was evaluated by ELISA (Merck Millipore, cat # EZHA-52K) by following the manufacturer protocol. The sensitivity of the ELISA assay kit for the monoPEGylated human amylin product was similar to the non-conjugated human amylin as inferred from control analytical curves. In case needed, the mice plasma samples were diluted accordingly in order to achieve the desired concentration range of the ELISA kit. Glucagon was evaluated from the same serum samples, by using an ELISA kit (Merck Millipore, Cat # EZGLU-30K) according to instructions of the manufacturer.
Continuous lines are best fitting of single-exponential decay function to data. b) Modulation of glucagon. […] The raw data can be found in S2 File.

[3] = system: Trypsin; experiment: trypsin in 25 mM ammonium bicarbonate, after reduction with dithiothreitol and blockage with iodoacetamide; details: 37°C, up to 18 h
[4] = biological target: T1, human receptor-activity modifying protein 3 Extracellular Topological Domain (human, UniProt O60896 28-117, fluorescein (FITC, below 1 mol per mol protein, position not stated)); experiment: fluorescence polarisation; fluorescence anisotropy of the FITC-labelled protein (50 nM murine amylin, CTR1 or RAMP3) against total concentration of unlabelled ligand; PBS pH 7.4, 25°C; ex 480 nm, em 520 nm, cut-off filter 515 nm; details: both partners purified
T1 construct: human receptor-activity modifying protein 3, extracellular topological domain, residues 28-117 of O60896; pET28b construct with a thrombin cleavage site after the N-terminal histidine tag; no cleavage is told; also called RAMP3-ETD; RAMP3
T1 sequence (looked up): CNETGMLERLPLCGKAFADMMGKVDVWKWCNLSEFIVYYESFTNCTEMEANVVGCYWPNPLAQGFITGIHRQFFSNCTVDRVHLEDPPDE

[5] = biological target: B1; experiment: as above; details: both partners purified
[6] = fit of serum concentration vs time
[7] = mouse, in vivo, sc, replicate column 1
[8] = mouse, in vivo, sc, replicate column 2

## CC[C@H](C)[C@H](NC(=O)[C@H](C)NC(=O)CNC(=O)[C@H](Cc1ccccc1)NC(=O)[C@H](CC(N)=O)NC(=O)[C@H](CC(N)=O)NC(=O)[C@H](CO)NC(=O)[C@H](CO)NC(=O)[C@H](Cc1c[nH]cn1)NC(=O)[C@@H](NC(=O)[C@H](CC(C)C)NC(=O)[C@H](Cc1ccccc1)NC(=O)[C@H](CC(N)=O)NC(=O)[C@H](C)NC(=O)[C@H](CC(C)C)NC(=O)[C@H](CCCNC(=N)N)NC(=O)[C@H](CCC(N)=O)NC(=O)[C@@H](NC(=O)[C@H](C)NC(=O)[C@@H]1CSSC[C@H](NC(=O)[C@@H](N)CCCCN)C(=O)N[C@@H](CC(N)=O)C(=O)N[C@@H]([C@@H](C)O)C(=O)N[C@@H](C)C(=O)N[C@@H]([C@@H](C)O)C(=O)N1)[C@@H](C)O)C(C)C)C(=O)N[C@@H](CC(C)C)C(=O)N[C@@H](CO)C(=O)N[C@@H](CO)C(=O)N[C@H](C(=O)N[C@@H](CC(N)=O)C(=O)N[C@H](C(=O)NCC(=O)N[C@@H](CO)C(=O)N[C@@H](CC(N)=O)C(=O)N[C@H](C(=O)N[C@@H](Cc1ccc(O)cc1)C(N)=O)[C@@H](C)O)C(C)C)[C@@H](C)O [human amylin]
[1]
  half-life (t1/2): 15 to 20 min
[2]; (unit not given)
  Half Life (One phase decay, best-fit value): 0.3893
  Tau (One phase decay, best-fit value): 0.5616
[2]; [6]
  K (One phase decay, best-fit value): 1.781
  Plateau (One phase decay, best-fit value): 184.9
  Span (One phase decay, best-fit value): 6701
  Y0 (One phase decay, best-fit value): 6886
[2]; [7]
  level at time molar at 5 s: 6630 nM
  level at time molar at 0.5 min: 4690 nM
  level at time molar at 1 min: 2720 nM
  level at time molar at 2 min: 593 nM
  level at time molar at 4 min: 198 nM
  level at time molar at 0.8 h: 22.7 nM
[2]; [8]
  level at time molar at 5 s: 6710 nM
  level at time molar at 0.5 min: 659 nM
  level at time molar at 1 min: 423 nM
  level at time molar at 2 min: 324 nM
  level at time molar at 4 min: 207 nM
  level at time molar at 0.8 h: 18.2 nM
[2]; mouse, in vivo, sc, serum amylin by ELISA, single-exponential decay fit, n = 4 per group
  half-life: 23 min

## KCNTATCATQRLANFLVHSSNNFGAILSSTNVGSNTY-CONH2
[3]
  cleaved bond: Arg11-L12

## B1
[4]
  binding result: binds

## B2
[4]
  binding result: binds
[5]
  binding result: binds
